What all share (type): functional
Assay [1] has as its system A549. Briefly: Cytotoxicity against human A549 cells after 6 days by MTT assay. The following applies: A549, 144 h, read-out: ED50 (the source's name). A general note: Formazan colour is commonly taken as a measure of viable cells.
The test system of assay [2] is HT-29. Nature of the assay: Cytotoxicity against human HT-29 cells after 6 days by MTT assay. To be noted: HT-29, 144 h, read-out: ED50 (the source's name).
Assay [3] deals with KB. Nature of the assay: Cytotoxicity against human KB cells after 3 days by MTT assay. The following applies: 72 h, read-out: ED50 (the source's name).
In assay [4] the test system is P388. Briefly: Cytotoxicity against mouse P388 cells after 3 days by MTT assay. To be noted: P388, 72 h, read-out: ED50 (the source's name).

In brackets after ≈: the same amount, converted by molar mass.

Take `C=C(CC[C@@H](C)[C@H]1CC[C@H]2[C@@H]3C(=O)C=C4C[C@@H](O)CC[C@]4(CO)[C@H]3CC[C@]12C)C(C)C`: the EC50 in assay [1] was 4.09 µg/mL (≈ 9.54 µM); in assay [2] it was 3.34 µg/mL (≈ 7.79 µM); in assay [3] it was above 50 µg/mL; in assay [4] it was 0.4 µg/mL (≈ 0.933 µM).
For `C=C(CC[C@@H](C)[C@H]1CC[C@H]2[C@@H]3C[C@@H](O)[C@@]4(O)C[C@@H](O)CC[C@]4(CO)[C@H]3CC[C@]12C)C(C)C`, the EC50 was determined as 0.81 µg/mL (≈ 1.81 µM) in assay [1], 0.93 µg/mL (≈ 2.07 µM) in assay [2], 0.39 µg/mL (≈ 0.869 µM) in assay [3] and 0.34 µg/mL (≈ 0.758 µM) in assay [4].
Turning to `C=C(CC[C@@H](C)[C@H]1CC[C@H]2[C@@H]3CC=C4C[C@@H](O)CC[C@]4(CO)[C@H]3CC[C@]12C)C(C)C`, the EC50 in assay [1] stood at 1.76 µg/mL (≈ 4.24 µM); in assay [2], 1.31 µg/mL (≈ 3.16 µM); in assay [3], 1.1 µg/mL (≈ 2.65 µM); in assay [4] it was 0.45 µg/mL (≈ 1.09 µM).
Regarding `C=C(CC[C@@H](C)[C@H]1C[C@@H](O)[C@H]2[C@@H]3CC=C4C[C@@H](O)CC[C@]4(CO)[C@H]3CC[C@@]21C)C(C)C`, the EC50 in assay [1] is 0.41 µg/mL (≈ 0.952 µM); in assay [2], 0.17 µg/mL (≈ 0.395 µM); in assay [3], 0.6 µg/mL (≈ 1.39 µM); in assay [4], 0.07 µg/mL (≈ 0.163 µM).
Consider `C=C(CC[C@@H](C)[C@H]1CC[C@H]2[C@@H]3[C@@H](OC(C)=O)C=C4C[C@@H](O)CC[C@]4(CO)[C@H]3CC[C@]12C)C(C)C`, for which the EC50 came to 0.81 µg/mL (≈ 1.71 µM) in assay [1], 0.87 µg/mL (≈ 1.84 µM) in assay [2], 0.38 µg/mL (≈ 0.804 µM) in assay [3] and 0.42 µg/mL (≈ 0.888 µM) in assay [4].
As for `C=C(CC[C@@H](C)[C@H]1CC[C@H]2[C@@H]3[C@@H](O)C=C4C[C@@H](O)CC[C@]4(CO)[C@H]3CC[C@]12C)C(C)C`, the EC50 was 0.69 µg/mL (≈ 1.6 µM) in assay [1], 0.72 µg/mL (≈ 1.67 µM) in assay [2], 0.58 µg/mL (≈ 1.35 µM) in assay [3] and 0.24 µg/mL (≈ 0.557 µM) in assay [4].

These data come from ChEMBL document CHEMBL1150933, “Cytotoxic sterols from the soft coral Nephthea erecta” (1998).
